From US12649748B2, “Wee1 inhibitor and use thereof” (JIANGSU TASLY DIYI PHARMACEUTICAL CO., LTD., priority 2021, dated 2026)
In brackets after ≈: the same amount, converted by molar mass.

Key:
[1] = Plasma protein binding (PPB), mouse; assay type: in vitro ADME; conditions: 5 h dialysis, read-out: Plasma protein binding rate (%) Mouse (converted)
Method: Sample preparation: The compound was dissolved in DMSO to a stock solution of 10 mM, then the compound was diluted with PBS to a secondary stock solution of 0.02 mM, and then the above 0.02 mM was diluted to 1 μM using blank plasma, which was the sample to be incubated.
Dialysis set-up preparation: 400 μL of blank PBS was first added to the white wells of the equilibrated dialysis plate and 200 μL of the configured plasma sample was added to the red wells, and the dialysis plate was sealed with a sealing film.
Recovery plate preparation: Two 96-well deep-well plates, labelled T0 and T5, were prepared and all plasma samples were added at n=2. 300 μL of acetonitrile (Verapamil-HCl, 4 ng/mL) was added directly to the TO plate, followed by 50 μL of blank PBS mix well for 5 min and left to stand in a 4° C. refrigerator until the end of the incubation.
Experimental Operation: The dialysis device and the T5 plate were incubated together for 5 h in a microplate thermostatic shaker (37° C., using 300 rpm or minimum speed). At the end of the incubation, 300 μL of acetonitrile (Verapamil-HCl, 4 ng/mL) was added and 50 μL of PBS solution was added. At the end of the dialysis incubation, a new 96-well deep well plate was taken. Add 50 μL of plasma well sample to the corresponding position of the 96-well plate, 300 μL of acetonitrile and 50 μL of blank PBS; take 50 μL of buffer well sample to the corresponding position of the 96-well plate, then add 300 μL of acetonitrile and 50 μL of blank plasma. Add 300 μL of acetonitrile (Verapamil-HCl, 4 ng/mL) to the plasma-containing wells of the T5 plate, and then 50 μL of PBS solution was added. Shake for 5 min to fully precipitate the proteins and centrifuge at 20,000 g for 10 min at 4° C. Add 200 μL of supernatant to 200 μL of pure water, mix well and perform LC-MS/MS analysis.
2. Data Processing and Parameter Calculation Plasma protein binding rate=[(Rpe−Rb)/Rpe]×100% Recovery=[(Rpe+Rb)/R5h]×100% Stability=(R5/R0)×100% where • Rpe=ratio of plasma-side testing sample peak area to internal standard • Rb=ratio of buffer side testing sample peak area to internal standard • R5=ratio of incubator stability sample peak area to internal standard • R0=ratio of refrigerator stability sample peak area to internal standard 3.

Solubility test = assay type: physicochemical; conditions: aqueous buffer, thermodynamic from solid; buffer solution, shaken at constant temperature 24 h
Method: The compound was placed in a buffer solution and shaken at constant temperature for 24 h. […] Chromatographic conditions: C18 column, mobile phase A: 0.02 M potassium dihydrogen phosphate:acetonitrile=90:10, mobile phase B: acetonitrile; V: 1.0 ml/min, T: 35° C., λ: 210 nm.

CYP1A2 = biological target: T1, CYP1A2 (Homo sapiens, UniProt P05177); assay: Inhibition of cytochrome P450, CYP1A2; assay type: in vitro ADME; conditions: CYP1A2 enzyme, pH 7.4, probe EOMCC, read-out: CYP inhibition/% 1A2; for inhibition at 30 min, 1 µM: compound concentration 1 μM; for inhibition at 30 min, 10 µM: compound concentration 10 μM
T1 sequence (P05177 1-516): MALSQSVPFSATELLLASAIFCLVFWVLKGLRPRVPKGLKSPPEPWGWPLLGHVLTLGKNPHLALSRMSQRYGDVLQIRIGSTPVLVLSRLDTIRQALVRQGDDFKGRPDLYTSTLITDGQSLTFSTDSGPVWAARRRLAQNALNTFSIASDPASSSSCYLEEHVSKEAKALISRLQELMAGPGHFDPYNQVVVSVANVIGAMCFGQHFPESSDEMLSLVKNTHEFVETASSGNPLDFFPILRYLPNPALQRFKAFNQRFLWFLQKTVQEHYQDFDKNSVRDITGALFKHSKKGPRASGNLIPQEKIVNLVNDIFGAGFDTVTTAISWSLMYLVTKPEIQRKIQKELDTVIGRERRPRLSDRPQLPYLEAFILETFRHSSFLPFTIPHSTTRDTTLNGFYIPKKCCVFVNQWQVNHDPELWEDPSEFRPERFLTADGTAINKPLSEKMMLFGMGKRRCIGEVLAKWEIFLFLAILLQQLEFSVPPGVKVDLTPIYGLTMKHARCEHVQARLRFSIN
Method: (§1) Enzymatic experiments were performed to quantify the inhibition of CYP450 enzyme activity of each isoform of CYP450 by small molecule inhibitors through fluorescence generated by the oxidation of the substrate by cytochrome P450. […] The Solution B composition used for the experiment was: 40 U/mL G6PDH (Sigma-aldrich, Cat #G6378). The substrate mix was 0.05× Solution A, 0.01× Solution B, 50 mM Potassium Phosphate, 0.01 mM BOMCC/0.01 mM EOMCC/0.001 mM DBOMF. […] The data were analyzed and processed using GraphPad Prism 6 software to obtain IC50 values.

CYP2C8 = biological target: T2, CYP2C8 (Homo sapiens, UniProt P10632); assay: Inhibition of cytochrome P450, CYP2C8; assay type: in vitro ADME; conditions: CYP2C8 enzyme, pH 7.4, probe DBOMF, read-out: CYP inhibition/% 2C8; for inhibition at 30 min, 1 µM: compound concentration 1 μM; for inhibition at 30 min, 10 µM: compound concentration 10 μM
T2 sequence (P10632 1-490): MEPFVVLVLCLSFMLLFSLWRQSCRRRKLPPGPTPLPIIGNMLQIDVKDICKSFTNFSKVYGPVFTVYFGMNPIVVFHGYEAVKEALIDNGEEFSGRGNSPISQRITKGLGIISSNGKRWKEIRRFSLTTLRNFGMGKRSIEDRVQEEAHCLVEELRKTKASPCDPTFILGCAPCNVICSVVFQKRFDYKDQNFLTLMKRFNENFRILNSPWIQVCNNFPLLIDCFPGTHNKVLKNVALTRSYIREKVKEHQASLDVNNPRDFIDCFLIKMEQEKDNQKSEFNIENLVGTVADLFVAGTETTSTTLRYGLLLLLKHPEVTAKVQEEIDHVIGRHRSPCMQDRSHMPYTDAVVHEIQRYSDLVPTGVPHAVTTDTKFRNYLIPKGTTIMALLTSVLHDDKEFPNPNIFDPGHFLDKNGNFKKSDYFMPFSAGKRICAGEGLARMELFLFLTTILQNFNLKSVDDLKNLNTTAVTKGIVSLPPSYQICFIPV
Method: as §1

CYP2C19 = CYP2C19 (Homo sapiens, UniProt P33261); assay: Inhibition of cytochrome P450, CYP2C19; assay type: in vitro ADME; conditions: CYP2C19 enzyme, pH 7.4, probe EOMCC, read-out: CYP inhibition/% 2C19; for inhibition at 30 min, 1 µM: compound concentration 1 μM; for inhibition at 30 min, 10 µM: compound concentration 10 μM
Sequence of CYP2C19 (P33261 whole entry): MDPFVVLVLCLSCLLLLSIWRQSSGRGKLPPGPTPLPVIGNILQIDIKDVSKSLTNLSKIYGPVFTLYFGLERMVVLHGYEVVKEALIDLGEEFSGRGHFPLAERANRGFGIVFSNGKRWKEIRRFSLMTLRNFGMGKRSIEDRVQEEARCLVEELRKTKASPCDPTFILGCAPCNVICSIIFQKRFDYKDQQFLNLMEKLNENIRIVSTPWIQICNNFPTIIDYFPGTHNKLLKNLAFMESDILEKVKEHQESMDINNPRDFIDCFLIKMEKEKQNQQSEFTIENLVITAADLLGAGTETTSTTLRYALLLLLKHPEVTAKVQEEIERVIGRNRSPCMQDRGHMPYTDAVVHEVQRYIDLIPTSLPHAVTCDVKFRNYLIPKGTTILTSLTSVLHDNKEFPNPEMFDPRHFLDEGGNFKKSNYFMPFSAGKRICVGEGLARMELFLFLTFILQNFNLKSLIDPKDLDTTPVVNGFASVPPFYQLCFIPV
Method: as §1

Row | Compound | fraction unbound at 5 h, 1 µM [1] | solubility at 24 h (Solubility test) [µg/mL] | inhibition at 30 min, 1 µM (CYP1A2) [%] | inhibition at 30 min, 10 µM (CYP1A2) [%] | inhibition at 30 min, 1 µM (CYP2C8) [%] | inhibition at 30 min, 10 µM (CYP2C8) [%] | inhibition at 30 min, 1 µM (CYP2C19) [%] | inhibition at 30 min, 10 µM (CYP2C19) [%]
1 | CN1CCN(c2ccc(Nc3ncc4cnn(-c5cccc(N=S(C)(C)=O)n5)c4n3)cc2)CC1 [Compound 1] | 0.226 | 120 (≈ 251 µM) | 18.4 | 16.3 | -5.3 | 3.2 | 3.3 | 10.7
2 | Cc1cc(Nc2ncc3cnn(-c4cccc(N=S(C)(C)=O)n4)c3n2)ccc1N1CCC(N(C)C)CC1 [Compound 14] | 0.138 |  |  |  |  |  |  | 
3 | Cc1cc(Nc2ncc3cnn(-c4cccc(N=S(C)(C)=O)n4)c3n2)ccc1N1CCN(C)CC1 [Compound 16] | 0.092 | 350 (≈ 712 µM) |  |  |  |  |  | 

More lines, now with the values ahead:

Row | fraction unbound at 5 h, 1 µM [1] | solubility at 24 h (Solubility test) [µg/mL] | inhibition at 30 min, 1 µM (CYP1A2) [%] | inhibition at 30 min, 10 µM (CYP1A2) [%] | inhibition at 30 min, 1 µM (CYP2C8) [%] | inhibition at 30 min, 10 µM (CYP2C8) [%] | inhibition at 30 min, 1 µM (CYP2C19) [%] | inhibition at 30 min, 10 µM (CYP2C19) [%] | Compound
4 | 0.087 | 30 (≈ 59.9 µM) |  |  |  |  |  |  | C=CCn1c(=O)c2cnc(Nc3ccc(N4CCN(C)CC4)cc3)nc2n1-c1cccc(C(C)(C)O)n1 [AZD-1775, reference compound]
5 |  |  | 13.5 | 14.2 | -11 | 0.24 | 3.8 | 9.8 | CN1CCN(c2ccc(Nc3ncc4cnn(-c5cccc(C(C)(C)O)n5)c4n3)cc2)CC1 [Compound 2]
6 |  |  | 15.5 | 23.3 | -14.3 | 20.9 | -16.5 | -8.3 | CS(C)(=O)=Nc1cccc(-n2ncc3cnc(Nc4ccc(N5CCOCC5)cc4)nc32)n1 [Compound 6]
